The values below come from patent US20260083701A1, “COMPOSITIONS, FORMULATIONS, AND METHODS FOR TREATMENT OF INFLAMMATORY CONDITIONS” (Oddity Labs, LLC, priority 2023, published 2026).

One test concerns IL-4 receptor signaling. Put plainly: IL-4 signaling inhibition in HEK-Blue IL-4/IL-13 cells. The class given is cell-based, human. Conditions: HEK-Blue IL-4/IL-13 cells stimulated with 1.25 ng/mL IL-4, co-culture with varying concentrations for 24 hours. As for the experimental part:
HEK-Blue IL-4/IL-13 cells are used to evaluate IL-4/IL-4R-alpha binding. HEK-Blue IL-4/IL-13 have been engineered to produce secreted alkaline phosphatase (SEAP) when exposed to IL-4 or IL-13 and have been previously used to identify IL-4 and IL-4R inhibitors. Compounds are tested with these cells at various dosages to evaluate dose dependent changes in IL-4/IL-4R-alpha binding inhibition. Full EC50 curves are generated for Tier1 compounds.
In the experiment, engineered HEK-Blue™ IL-4/IL-13 cells were stimulated with a dose of 1.25 ng/mL of IL-4 and then subjected to co-culture with varying concentrations of the compounds for a period of 24 hours. […] The provided data represent the mean±standard deviation of six technical replicates carried out across two experimental replicates.

Another test has as its system IL-13. Put plainly: Functional Th2-blocking activity: IL-13 expression in primary human Th2 cells (intracellular flow cytometry). The test is classed as cell-based. Conditions: for Expression of Cytokine following Stimulation (% X Positive among CD4+ T cells) IL-13: 3 days co-culture with compound, PMA/ionomycin stimulation 6 hours; for % Normalized Reduction of Cytokine Expression From Baseline in CD4+ T Cells IL-13: normalized against vehicle control (water), 3 days co-culture, PMA/ionomycin 6 hours. An excerpt: (§1) To produce T helper 2 (Th2) cells, peripheral blood mononuclear cells (PBMCs) were harvested from healthy donor leukopaks using Ficoll gradients. Naive CD4+ T cells were further isolated, then activated using TransAct or Dynabeads (depending on the donor). CD4+ T cells were activated for two days in the presence of low dose IL-2 (30 IU/mL) in X-VIVO-15 media containing 5% human AB serum (activation cycle). On the second day, the media was exchanged and supplemented with interleukin 4 (IL-4) (20 ng/mL), anti-IFN-gamma antibody (1 μg/mL), and interleukin 2 (IL-2) (rest cycle). The cells were cultured for an additional five days then evaluated for Prostaglandin D2 receptor 2 (DP2 or CRTH2) expression and IL-4 and interleukin 13 (IL-13) expression following phorbol myristate acetate (PMA)/ionomycin stimulation. If the expression of CRTH2 was >50%, the cells were frozen and used in Th2 IL-4/IL-13 bioactivity assays. If the expression of CRTH2 <50%, then the cells were restimulated using TransAct (or Dynabeads) and maintained on similar cycles of activation (2 days) and rest (5 days), until the expression of CRTH2 exceeded 50%. Typically, no more than 4 cycles are needed before the Th2 cells may be harvested and frozen.
(§2) For testing the ability of a compound or salt of the present disclosure to reduce the expression of IL-4 and IL-13 was tested in primary human Th2 cells, the abovementioned cells were thawed, then cultured for one day in IL-2 containing media. The Th2 cells were treated with compounds added at varying concentrations for three days, after which, the cells were washed, and stimulated with PMA/ionomycin for 6 hrs prior to readabout via intracellular flow cytometry.
(§3) The ability of a compound or salt of the present disclosure to reduce the expression of IL-4 and IL-13 was tested in primary human Th2 cells. Naive, primary human CD4+ T cells were isolated from healthy donors and differentiated into Th2 cells using a combination of IL-4 cytokine and anti-IFN-gamma antibody, based on a modified protocol from Scott et al (Activation of Th2 cells downregulates CRTh2 through an NFAT1 mediated mechanism. PLoS One. 2018 Jul. 3; 13(7):e0199156). Th2 cells were CRTH2+ and expressed IL-4 and IL-13 following PMA/ionomycin stimulation. Prior to PMA/ionomycin stimulation, Th2 cells were co-cultured with a compound or salt of the present disclosure for 3 days and then stimulated for 6 hours. Intracellular flow cytometry was performed to investigate the expression of IL-4 and IL-13 among stimulated CD4+ Th2 cells. The compound or salt was evaluated across a 2-log concentration range. Th2 cells were cultured in X-VIVO-15 media with human AB serum and supplemented with low dose IL-2 (30 IU/mL). The antibody panel that was used is listed below. All antibodies were obtained from Biolegend.
(§4) Description of Calculation for: (1) Expression of Cytokine following Stimulation (% X Positive among CD4+ T cells), and (2) % Normalized Reduction of Cytokine Expression From Baseline in CD4+ T Cells
(§5) The expression of IL-4 and IL-13 was measured based on positive gated fractions among CD4+ Th2 cells. The number is expressed as a positive percentage, determined based on the fluorescence-minus-one (FMO) control. The max percent is 100%. The normalized reduction value uses the vehicle control (water) to normalize against using the following percent change formula. (Cmpd: compound)

Another test relates to IL-4. Kind of test: Functional Th2-blocking activity: IL-4 expression in primary human Th2 cells (intracellular flow cytometry). The test is classed as cell-based. The following applies: for % Normalized Reduction of Cytokine Expression From Baseline in CD4+ T Cells IL-4: normalized against vehicle control (water), 3 days co-culture, PMA/ionomycin 6 hours; for % Normalized Reduction of Cytokine Expression From Baseline in CD4+ T Cells IL-4 / Expression of Cytokine following Stimulation (% X Positive among CD4+ T cells) IL-4: primary human CD4+ Th2 cells; for Expression of Cytokine following Stimulation (% X Positive among CD4+ T cells) IL-4: 3 days co-culture with compound, PMA/ionomycin stimulation 6 hours.
Description: as §1, §2, §3, §4, §5

For the compound `O=C(Nc1cccc(S(=O)(=O)NC2=NCCC2)c1)c1ccc(OCc2ccccc2)cc1` [III-1, 4-(benzyloxy)-N-{3-[(3,4-dihydro-2H-pyrrol-5-yl)sulfamoyl]phenyl}benzamide], the IL-4 signaling inhibition result in the test on IL-4 receptor signaling was “prominent IL-4 signaling inhibition”. Also, in the test with IL-13, the “Expression of Cytokine following Stimulation (% X Positive among CD4+ T cells) IL-13” value is recorded as “B (B represents 10% to less than 14%)” and the “% Normalized Reduction of Cytokine Expression From Baseline in CD4+ T Cells IL-13” value (“% Normalized Reduction … in CD4+ T Cells IL-13” for short) is on record as “D (D represents 50% or greater)”. In the test with IL-4, the “% Normalized Reduction of Cytokine Expression From Baseline in CD4+ T Cells IL-4” value (“% Normalized Reduction … in CD4+ T Cells IL-4” for short) is given as “D (D represents 25% or greater)” and the “Expression of Cytokine following Stimulation (% X Positive among CD4+ T cells) IL-4” value is reported as “A (A represents 0% to less than 30%)”.

For the compound `Nc1c(C(=O)Nc2ccc(Cl)c(Cl)c2)c2ccccn2c1C(=O)c1cccc([N+](=O)[O-])c1` [Compound I-3, 2-amino-N-(3,4-dichlorophenyl)-3-(3-nitrobenzoyl)indolizine-1-carboxamide], the IL-4 signaling inhibition entry in the test with IL-4 receptor signaling is “prominent IL-4 signaling inhibition”. Moreover, in the test on IL-13, the “Expression of Cytokine following Stimulation (% X Positive among CD4+ T cells) IL-13” value is listed as “C (C represents 14% to less than 18%)” and the “% Normalized Reduction … in CD4+ T Cells IL-13” value is recorded as “C (C represents 40% to less than 50%)”. In addition, in the test with IL-4, the “% Normalized Reduction … in CD4+ T Cells IL-4” value is reported as “B (B represents 15% to less than 20%)” and the “Expression of Cytokine following Stimulation (% X Positive among CD4+ T cells) IL-4” value is listed as “B (B represents 30% to less than 35%)”.

Consider `O=C(N/N=C/c1cccc(OCc2ccccc2)c1)c1cc2ccccc2cc1O` [VI-11, N′-[3-(benzyloxy)benzylidene]-3-hydroxy-2-naphthohydrazide], for which, in the test on IL-13, the “Expression of Cytokine following Stimulation (% X Positive among CD4+ T cells) IL-13” value is reported as “D (D represents 18% or greater)” and the “% Normalized Reduction … in CD4+ T Cells IL-13” value is “A (A represents 0% to less than 30%)”. In the test with IL-4, the “% Normalized Reduction … in CD4+ T Cells IL-4” value is given as “A (A represents 0% to less than 15%)” and the “Expression of Cytokine following Stimulation (% X Positive among CD4+ T cells) IL-4” value is on record as “D (D represents 40% or greater)”.

Turning to `O=C(Nc1cccc(Cn2nc3ccccn3c2=O)c1)c1c[nH]n2c1nc(=O)c1ccccc12` [II-2, 5-oxo-N-(3-((3-oxo-[1,2,4]triazolo[4,3-a]pyridin-2(3H)-yl)methyl)phenyl)-1,5-dihydropyrazolo[1,5-a]quinazoline-3-carboxamide], in the test with IL-4 receptor signaling, the IL-4 signaling inhibition entry is “exception”. Besides, in the test with IL-13, the “Expression of Cytokine following Stimulation (% X Positive among CD4+ T cells) IL-13” value is on record as “B (B represents 10% to less than 14%)” and the “% Normalized Reduction … in CD4+ T Cells IL-13” value is “D (D represents 50% or greater)”. Further, in the test with IL-4, the Th2 activity result was “suppressed Th2 activity”, the “% Normalized Reduction … in CD4+ T Cells IL-4” value was “B (B represents 15% to less than 20%)” and the “Expression of Cytokine following Stimulation (% X Positive among CD4+ T cells) IL-4” value is recorded as “B (B represents 30% to less than 35%)”.

Consider `O=C(Cc1ncc(C(F)(F)F)cc1Cl)Nc1ccc(N2CCOCC2)cc1` [III-6, 2-[3-chloro-5-(trifluoromethyl)pyridin-2-yl]-N-[4-(morpholin-4-yl)phenyl]acetamide], for which, in the test with IL-13, the “Expression of Cytokine following Stimulation (% X Positive among CD4+ T cells) IL-13” value is “C (C represents 14% to less than 18%)” and the “% Normalized Reduction … in CD4+ T Cells IL-13” value is on record as “B (B represents 30% to less than 40%)”. For the same compound, in the test on IL-4, the “% Normalized Reduction … in CD4+ T Cells IL-4” value is recorded as “B (B represents 15% to less than 20%)” and the “Expression of Cytokine following Stimulation (% X Positive among CD4+ T cells) IL-4” value was “B (B represents 30% to less than 35%)”.

As to `Cc1ccc(C)n1-c1ccsc1C(=O)NC1CCCC1` [VI-5, N-cyclopenty1-3-(2,5-dimethy1-1H-pyrrol-1-yl)thiophene-2-carboxamide], in the test with IL-13, the “Expression of Cytokine following Stimulation (% X Positive among CD4+ T cells) IL-13” value is given as “C (C represents 14% to less than 18%)” and the “% Normalized Reduction … in CD4+ T Cells IL-13” value is recorded as “B (B represents 30% to less than 40%)”. Further, in the test on IL-4, the “% Normalized Reduction … in CD4+ T Cells IL-4” value is recorded as “B (B represents 15% to less than 20%)” and the “Expression of Cytokine following Stimulation (% X Positive among CD4+ T cells) IL-4” value is “B (B represents 30% to less than 35%)”.

For the compound `Cc1nnc(-c2cccc(-c3noc(-c4c[nH]c(=O)c5ccccc45)n3)c2)[nH]1` [IV-2, 4-{3-[3-(5-methyl-4H-1,2,4-triazol-3-yl)phenyl]-1,2,4-oxadiazol-5-yl}-1,2-dihydroisoquinolin-1-one], in the test with IL-13, the “Expression of Cytokine following Stimulation (% X Positive among CD4+ T cells) IL-13” value is given as “B (B represents 10% to less than 14%)” and the “% Normalized Reduction … in CD4+ T Cells IL-13” value is on record as “D (D represents 50% or greater)”. In addition, in the test with IL-4, the “% Normalized Reduction … in CD4+ T Cells IL-4” value is given as “D (D represents 25% or greater)” and the “Expression of Cytokine following Stimulation (% X Positive among CD4+ T cells) IL-4” value was “B (B represents 30% to less than 35%)”.

On to `Cc1ccc(C)n1-c1ccsc1C(=O)N1CCOC(c2ccccc2)C1` (stereo not shown) [VI-8, 4-[3-(2,5-dimethyl-1H-pyrrol-1-yl)thiophene-2-carbonyl]-2-phenylmorpholine], for which, in the test on IL-13, the “Expression of Cytokine following Stimulation (% X Positive among CD4+ T cells) IL-13” value was “C (C represents 14% to less than 18%)” and the “% Normalized Reduction … in CD4+ T Cells IL-13” value is recorded as “C (C represents 40% to less than 50%)”. In the test on IL-4, the “% Normalized Reduction … in CD4+ T Cells IL-4” value was “A (A represents 0% to less than 15%)” and the “Expression of Cytokine following Stimulation (% X Positive among CD4+ T cells) IL-4” value is “C (C represents 35% to less than 40%)”.

Consider `COC(=O)c1sccc1-n1c(C)ccc1C` [VI-3, methyl 3-(2,5-dimethyl-1H-pyrrol-1-yl)thiophene-2-carboxylate], for which, in the test on IL-13, the “Expression of Cytokine following Stimulation (% X Positive among CD4+ T cells) IL-13” value was “C (C represents 14% to less than 18%)” and the “% Normalized Reduction … in CD4+ T Cells IL-13” value was “C (C represents 40% to less than 50%)”. Also, in the test on IL-4, the “% Normalized Reduction … in CD4+ T Cells IL-4” value is recorded as “B (B represents 15% to less than 20%)” and the “Expression of Cytokine following Stimulation (% X Positive among CD4+ T cells) IL-4” value was “B (B represents 30% to less than 35%)”.
